“Also recorded” adds a separate entry of the source.
Columns and labels:
[1] = system: angiotensin II-induced hypertension; experiment: Angiotensin II-induced hypertension, arterial blood pressure; assay type: in vivo, rats
Description: Measurement of arterial blood pressure: Rats are briefly anaesthetized (ketamine 80 mg/kg ip plus xylazine 10 mg/kg ip) and a saline-filled cannula is inserted in a femoral artery. The cannula is connected to a pressure transducer and a chart recorder. When arterial pressure is observed to be stable (within 5 minutes) mean arterial pressure is calculated and recorded.
Angiotensin II-induced experimental hypertension: On Day 0, rats are briefly anaesthetized (ketamine 80 mg/kg ip plus xylazine 10 mg/kg ip) and an osmotic minipump containing either saline or suramin is implanted subcutaneously. The dose rate of suramin is 300 mg/kg per 14 days. On Day 7, rats are again anaesthetized and another minipump containing saline or angiotensin II is implanted subcutaneously. The dose rate of angiotensin II is 5 mg/kg per 7 days. On Day 14, each rat is again anaesthetized and a cannula was inserted into a femoral artery for measurement of blood pressure. Angiotensin II causes a large increase in mean arterial pressure (of approx. 60-80 mmHg) in control rats.
On Day 0, rats were briefly anaesthetized and an osmotic minipump containing either saline or suramin was implanted subcutaneously. The dose rate of suramin was 300 mg/kg per 14 days. On Day 7, rats were again anaesthetized and another minipump containing saline or angiotensin II was implanted subcutaneously. The dose rate of angiotensin II was 5 mg/kg per 7 days. On Day 14, each rat was again anaesthetized and a cannula was inserted into a femoral artery for measurement of blood pressure. Angiotensin II caused a large increase in blood pressure in rats pretreated with saline. In contrast, the increase in blood pressure by angiotensin II was prevented by approximately 60% in rats pretreated with suramin.

[2] = system: atherosclerotic lesion formation in ApoE−/− mice; experiment: Atherosclerotic lesion formation in aortas of fat-fed ApoE mutant mice; assay type: in vivo, mouse; settings: high-fat diet, weekly s.c. suramin for 4 months, vs saline
Description: ApoE^−/− mice: Whole aortas are isolated and cut open via an incision along the ventral wall [Jiang et al., 2001, supra]. Tissues are rinsed with 60% v/v isopropanol and stained with oil red O (0.5%) for 10 minutes at room temperature. After staining, tissues are rinsed in 60% v/v sopropanol and preserved in 10% v/v neutral buffered formalin. The en face surface of the aorta is then imaged and lesion area (red-stained) quantified using MCID imaging analysis software.
Twelve-week-old ApoE mutant mice were fed a high fat diet for a further 4 months. During this 4 month period, the mice were given weekly subcutaneous injections of saline or suramin. Specifically, mice were initially dosed with two weekly injections of 300 mg/kg suramin. Four weeks later a 25 mg/kg dose of suramin was administered, and then weekly doses of 15 mg/kg suramin were administered for a further 11 weeks. At the end of the treatment period, mice were killed by anaesthetic overdose and the aorta was removed, cleaned of adherent fat on the adventitial surface, and then cut longitudinally along the entire length. […] The en face surface of the aorta was then imaged and lesion area (red-stained) quantified and expressed as a percent of total luminal surface area for each of: total aorta, thoracic aorta, abdominal aorta, and aortic arch. […]

[3] = target: T1, gp91phox-containing NADPH-oxidase in the mouse macrophage cell line J774 (Mus musculus, UniProt Q61093); experiment: NADPH oxidase activity in intact J774 mouse macrophages; assay type: cell-based; settings: FIG. 2b
T1 construct: endogenous in cells; host or cells: J774 mouse macrophage cell line (intact cells)
T1 sequence (Q61093 2-570 limits assumed): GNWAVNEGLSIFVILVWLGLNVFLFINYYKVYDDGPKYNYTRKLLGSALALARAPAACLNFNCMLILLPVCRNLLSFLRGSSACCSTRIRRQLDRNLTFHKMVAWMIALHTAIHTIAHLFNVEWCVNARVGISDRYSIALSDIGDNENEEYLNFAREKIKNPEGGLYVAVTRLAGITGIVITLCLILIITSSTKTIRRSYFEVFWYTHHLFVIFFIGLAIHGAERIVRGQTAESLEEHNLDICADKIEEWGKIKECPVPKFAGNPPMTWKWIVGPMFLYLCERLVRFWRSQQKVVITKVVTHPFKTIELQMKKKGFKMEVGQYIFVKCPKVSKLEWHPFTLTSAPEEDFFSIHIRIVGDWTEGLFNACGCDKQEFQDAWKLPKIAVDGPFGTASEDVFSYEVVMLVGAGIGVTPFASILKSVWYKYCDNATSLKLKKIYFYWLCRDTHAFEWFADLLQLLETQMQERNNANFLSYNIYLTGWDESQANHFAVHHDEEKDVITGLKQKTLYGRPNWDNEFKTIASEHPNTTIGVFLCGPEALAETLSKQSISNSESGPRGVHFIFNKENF
T1 sequence (Q61462 1-192 partner): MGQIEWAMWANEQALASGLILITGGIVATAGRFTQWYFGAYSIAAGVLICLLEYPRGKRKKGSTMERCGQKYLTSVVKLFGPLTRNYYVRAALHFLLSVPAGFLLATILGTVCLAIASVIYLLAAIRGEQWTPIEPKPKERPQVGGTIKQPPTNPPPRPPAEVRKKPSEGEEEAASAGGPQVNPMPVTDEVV

## Cc1ccc(C(=O)Nc2ccc(S(=O)(=O)O)c3cc(S(=O)(=O)O)cc(S(=O)(=O)O)c23)cc1NC(=O)c1cccc(NC(=O)Nc2cccc(C(=O)Nc3cc(C(=O)Nc4ccc(S(=O)(=O)O)c5cc(S(=O)(=O)O)cc(S(=O)(=O)O)c45)ccc3C)c2)c1 [suramin]
[1]; suramin 150 mg/kg s.c. per week for 2 weeks, no angiotensin II, ketamine-xylazine anaesthesia, FIG. 15
  mean arterial blood pressure of control rats: no effect
[1]; suramin 300 mg/kg per 14 days, angiotensin II 5 mg/kg per 7 days, Day 14
  prevention of the increase in blood pressure by angiotensin II: approximately 60%
[1]; suramin 1 week prior to and during 1 week of angiotensin II 5 mg/kg s.c., FIG. 15
  increase in arterial pressure during angiotensin II administration (in words): smaller increase
[2]; FIG. 12
  atherosclerotic lesion area: total aorta, thoracic aorta, abdominal aorta: markedly smaller lesion areas; also recorded: smaller lesion area
[2]; FIG. 12b
  lesion size in the aortic arch: no effect
[3]
  effect on gp91phox-containing NADPH-oxidase in J774 macrophages / phagocytic cells: does not inhibit; also recorded: ineffective
[3]; listed as Suramin
  effect on gp91phox-containing NADPH-oxidase in J774 macrophages / phagocytic cells: little effect

Source: patent US20070037883A1, “Therapeutic compositions” (priority 2003, published 2007)
